In the supplement of paper PMC8671470:

Columns and labels:
Details in all cases: 72 h
[1] = tested on: LAMA-84
How it was run: (§1)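 For the IC50, dose–response curves were fitted with a log-logistic model. The data came from fifteen myeloid leukaemia cell lines grown in RPMI 1640 at densities in the linear growth range and incubated in 384-well plates for 72 h at 37 °C under 5% CO2. Doses were five tenfold steps from 1 to 10,000 nM in duplicate, and luminescent ATP viability was normalised to vehicle and to a positive control at 10 µM before four-parameter fitting.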

[2] = tested on: HL-60
How it was run: as §1

[3] = tested on: KCL-22
How it was run: as §1

[4] = tested on: BV-173
How it was run: as §1

[5] = tested on: MOLM-13
How it was run: as §1

[6] = tested on: HEL
How it was run: as §1

[7] = tested on: THP-1
How it was run: as §1

[8] = tested on: SHI-1
How it was run: as §1

[9] = tested on: ML-2
How it was run: as §1

[10] = tested on: KG-1
How it was run: as §1

[11] = tested on: myeloid leukemia patient primary cells Pat.1; assay: cell viability (% survival relative to DMSO control); higher = less cytotoxic
How it was run: (§2)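 Thawed, Ficoll-purified mononuclear cells from AML or CML patients in RPMI 1640 with 10% FBS were seeded at 10,000 cells/well on 384-well plates pre-printed with 70 compounds at five tenfold concentrations, 1–10,000 nM, in duplicate, for 72 h. Viability was read by CellTiter-Glo and normalised to DMSO and 10 μM proteasome-inhibitor wells. Where given, area under the curve came from four-parameter log-logistic fits (drc, PharmacoGx R packages).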

[12] = tested on: myeloid leukemia patient primary cells Pat.8; assay: as above
How it was run: as §2

[13] = tested on: myeloid leukemia patient primary cells Pat.5; assay: as above
How it was run: as §2

[14] = tested on: myeloid leukemia patient primary cells Pat.6; assay: as above
How it was run: as §2

[15] = tested on: myeloid leukemia patient primary cells Pat.14; assay: as above
How it was run: as §2

[16] = tested on: myeloid leukemia patient primary cells Pat.7; assay: as above
How it was run: as §2

[17] = tested on: myeloid leukemia patient primary cells Pat.13; assay: as above
How it was run: as §2

[18] = tested on: myeloid leukemia patient primary cells Pat.2; assay: as above
How it was run: as §2

[19] = tested on: myeloid leukemia patient primary cells Pat.3; assay: as above
How it was run: as §2

[20] = tested on: myeloid leukemia patient primary cells Pat.10; assay: as above
How it was run: as §2

[21] = tested on: myeloid leukemia patient primary cells Pat.12; assay: as above
How it was run: as §2

[22] = tested on: myeloid leukemia patient primary cells Pat.4; assay: as above
How it was run: as §2

[23] = tested on: myeloid leukemia patient primary cells Pat.9; assay: as above
How it was run: as §2

[24] = tested on: myeloid leukemia patient primary cells Pat.11; assay: as above
How it was run: as §2

[25] = tested on: myeloid leukemia patient primary cells Pat.15; assay: as above
How it was run: as §2

[26] = tested on: HL-60; assay: area under dose-response curve (viability, 1 nM-10 uM) (fraction (0-1)); higher = more sensitive
How it was run: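 A rescreen of the full library used HL-60 cells in RPMI 1640 with 10% FBS on 384-well plates, run in duplicate at five tenfold concentrations (1–10,000 nM). Each screen included DMSO or 100 nM of one of three metabolic inhibitors and ran 72 h at 37 °C, 5% CO2. CellTiter-Glo viability was scaled between DMSO and 10 μM proteasome-inhibitor wells. Any area under the curve comes from four-parameter log-logistic fits with drc and PharmacoGx.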

N#CC(C#N)=NNc1ccc(OC(F)(F)F)cc1 [FCCP]
Details	IC50 (cell viability) [µM]
[1]	2.01
[2]	2.66
[3]	1.82
[4]	2.05
[5]	2.11
[6]	1.96
[7]	3.77
[8]	4.02
[9]	2.09
[10]	2.34

Details	area under dose-response curve, co-treatment: AZD3965 100 nM	area under dose-response curve, co-treatment: DMSO vehicle	area under dose-response curve, co-treatment: GSK2194069 100 nM	area under dose-response curve, co-treatment: pictilisib 100 nM	cell viability, 1 nM [%]	cell viability, 10 nM [%]	cell viability, 100 nM [%]	cell viability, 1000 nM [%]	cell viability, 10000 nM [%]
[11]	–	–	–	–	90.1	89.9	> 100	59.9	5.44
[12]	–	–	–	–	71.4	91.6	82.1	89.1	3.73
[13]	–	–	–	–	19.1	52.4	14.8	< 0	3.45
[14]	–	–	–	–	87	97.4	88.8	65.5	20
[15]	–	–	–	–	67.3	93.7	94.6	17.4	0.937
[16]	–	–	–	–	82.8	82.5	93.6	< 0	< 0
[17]	–	–	–	–	85	> 100	89.8	59.4	4.66
[18]	–	–	–	–	92.5	90.8	> 100	95.3	30
[19]	–	–	–	–	88.5	82.9	94.9	3.06	< 0
[20]	–	–	–	–	66.5	64	50.5	7.03	2.16
[21]	–	–	–	–	> 100	93.3	99.7	89.5	36.1
[22]	–	–	–	–	89	90.4	97.9	53.6	4.18
[23]	–	–	–	–	54	63.1	82.9	3.45	0.492
[24]	–	–	–	–	98	97.3	> 100	82.4	9.9
[25]	–	–	–	–	91.2	99.1	94.5	81.5	3.23
[26]	0.104	0.106	0.0946	0.107	–	–	–	–	–

C=C(C)[C@H]1Cc2c(ccc3c2O[C@@H]2COc4cc(OC)c(OC)cc4[C@@H]2C3=O)O1 [Rotenone]
Details	IC50 (cell viability) [µM]
[1]	0.0744
[2]	0.269
[3]	0.206
[4]	0.08
[5]	0.176
[6]	0.168
[7]	0.268
[8]	0.179
[9]	0.322
[10]	0.0684

Details	area under dose-response curve, co-treatment: AZD3965 100 nM	area under dose-response curve, co-treatment: DMSO vehicle	area under dose-response curve, co-treatment: GSK2194069 100 nM	area under dose-response curve, co-treatment: pictilisib 100 nM	cell viability, 1 nM [%]	cell viability, 10 nM [%]	cell viability, 100 nM [%]	cell viability, 1000 nM [%]	cell viability, 10000 nM [%]
[11]	–	–	–	–	75.9	81.3	72.8	68.4	34.8
[12]	–	–	–	–	70.8	79.3	55.6	36.8	3.96
[13]	–	–	–	–	5.46	0.265	0.912	0.265	1.18
[14]	–	–	–	–	44.2	75.4	47.2	37.3	23.7
[15]	–	–	–	–	30.2	71	50	30.8	10.7
[16]	–	–	–	–	5.63	79.4	54.6	36.3	1.21
[17]	–	–	–	–	62.5	80.5	57.6	17.2	11.9
[18]	–	–	–	–	62.7	86.5	68.7	61.5	57.5
[19]	–	–	–	–	48.6	57.4	35.7	25.3	18
[20]	–	–	–	–	38.7	75.5	47.7	30	20.9
[21]	–	–	–	–	94.8	89.2	66.1	64.9	49.5
[22]	–	–	–	–	79.9	89.3	88.5	62.3	11.7
[23]	–	–	–	–	1.24	50.1	10.8	1.6	< 0
[24]	–	–	–	–	88.5	93.3	94.2	85.5	73.9
[25]	–	–	–	–	44.9	66	43.9	24.3	37.6
[26]	0.137	0.319	0.289	0.256	–	–	–	–	–
